Assay results from US20220160712A1, “METHODS OF TREATING RHEUMATOID ARTHRITIS AND FOR PREDICTING THE RESPONSE TO METHOTREXATE” (CHAN ZUCKERBERG BIOHUB, INC., priority 2020, published 2022).
Several values for one entry are separate records, joined by “and”; a condition that tells them apart may be missing. Equal values may be shown once.

Legend:
[1] = system: complex human gut microbial community; assay: Ex vivo incubation of RA patient stool samples with MTX; format: cell-based
Procedure: All work was carried out in an anaerobic chamber. For each patient, stool was aliquoted into a pre-equilibrated cryovial, diluted in reduced PBS at 10 ml per 1 gram of stool, and vortexed to homogenize the sample. The sample was spun at ˜20 g for 1 minute on a mini-centrifuge to facilitate settling of sediment, and the sediment-free supernatant was then aliquoted into a new pre-equilibrated cryovial for evaluation of ex vivo growth. Growth was evaluated by inoculating liquid BHI with 1:50 dilution of this fecal slurry, with OD600 readings performed every 15 minutes for 48 hours with a 2-minute shake prior to each reading. Samples were treated with MTX 100 μg/ml or an equal volume of DMSO at time zero. Each patient's fecal slurry and treatment was evaluated in quadruplicate. Samples from four individuals (Donors 2, 4, 5, and 6) underwent 16S sequencing and analysis at 0 and 24 hours after of treatment with either DMSO or MTX treatments (4 replicates per treatment group) as described in the section titled “16S-seq of humanized mouse gut microbiota.”
Reads that were not already demultiplexed were demultiplexed using QIIME (Caporaso et al., 2010) v1.9.1 (split_libraries_fastq.py). For all reads except NYU RA patient samples, QIIME2 (Bolyen et al., 2019)(v 2020.2) was used to trim reads, denoise the data, and create a feature table using the following commands: qiime cutadapt trim-paired, qiime dada2 denoise-paired, qiime feature-table filter-samples. Within QIIME2, taxonomy was assigned using the DADA2 et al., (2016), Nat Methods 13, 581-583) implementation of the RDP Naïve Bayesian classifier (Wang, Q., et al., (2007), Appl Environ Microbiol 73, 5261-5267) using the DADA2-formatted SILVA v128 training set; taxonomic assignments to the species level were chosen by exact match of the ASV to the reference database, and where multiple matches were present, all are reported. For figures and in the text, genus and species assignments are reported when available, and when neither was available, the family taxonomic assignment was included; a unique ASV identifier is also reported. This ASV identifier can be used to look up the full taxonomic assignment from kingdom to species and the associated sequence variant in Table S2B. A phylogenetic tree was constructed in QIIME2 using the command: phylogeny align-to-tree-mafft-fasttree. The QIIME2R package was used to import QIIME2 artefacts into R (https://github.com/jbisanz/qiime2R). For RA patient samples from NYU, reads were demultiplexed using QIIME (Caporaso et al., 2010) v1.9.1 (split_libraries_fastq.py) before denoising and processing with DADA2 (Callahan et al., 2016a) v1.1.5 under MRO v3.2.5. Taxonomy was assigned using the DADA2 implementation of the RDP classifier (Wang et al., 2007) using the DADA2-formatted SILVA v128 training set (benjjneb.github.io/dada2/assign.html). Low abundance taxa were filtered out […] as well as ASVs that could not be assigned taxonomy past the kingdom level. Diversity metrics were generated using Vegan (v2.5-6) and Phyloseq (v1.30.0) (McMurdie, P.J., and Holmes, S. (2013), PLoS One 8, e61217), with principal coordinate analysis (PCoA) or principal components analysis (PCA) carried out with Ape (v5.3) or Vegan, respectively. Analyses were carried out on either: (1) centered log2-ratio (clr) normalized taxonomic abundances calculated as Aclr=[log2(A1/ga), log2(A2/ga), . . . log2(An/ga),], where A is a vector of non-zero read counts and ga is the geometric mean of all values of A, or (2) relative abundance calculated as proportion of reads. ANOSIM and PERMANOVA were used to detect changes in community composition using counts from rarefied data and Bray-Curtis distances. DESeq2 (v1.26.0) (Love, M. I., et al., (2014), Genome Biol 15, 550) was used to determine differentially abundant taxa on raw count data. Some ASVs were reported to have log2 fold changes that were 20 or higher. […]

[2] = Predicted concentration of MTX in the gastrointestinal (GI) tract; design: species or system human; conditions: for predicted concentration of MTX in the proximal GI tract: RA oral dose 25 mg divided by 250 ml
Procedure: The predicted concentration of MTX in the proximal GI tract was estimated by taking the oral dose used for rheumatoid arthritis (25 mg) and dividing it by 250 ml Dahlgren, D., and Lennernas, H. (2019), Pharmaceutics 11, 411; Dressman, J. B., et al., (1985), J Pharm Sci 74, 588-589; Shekhawat, P.B., and Pokharkar, V. B. (2017), Acta Pharm Sin B 7, 260-280), giving a concentration of 100 μg/ml or 220 μM. Further refinement of this estimate was done based on variations in the absorption of oral MTX in the proximal intestine (Grim, J., et al., (2003), Clin Pharmacokinet 42, 139-151), where it is estimated that 10-70% of the dose is not absorbed and instead delivered to the distal GI tract in RA patients. Thus, the estimated range of MTX in the GI tract was calculated to be 10-70 μg/ml with 100 μg/ml being the highest predicted concentration (prior to absorption by the host). When considering the doses used for cancer therapy (50 mg/day of oral MTX), the predicted range is 20-140 μg/ml with 200 μg/ml being the highest dose. MTX can also be given intravenously (IV) or intrathecally for the treatment of cancer (Treon, S. P., and Chabner, B. A. (1996), Clin Chem 42, 1322-1329), and is typically given at much higher doses, including as high as 800-1000 mg IV over 24 hours for the treatment of cancers such as lymphoma or acute lymphoblastic leukemia. Assuming that 30% of this is enterohepatically circulated et al., (1982), Cancer Res 42, 1279-1282), then between 240 and 300 mg would enter the GI tract, and the predicted concentration in the GI tract would be between 960-1200 μg/ml.

[3] = MTX 100 μg/ml, 24 hours, 4 ex vivo communities, padj<0.01
[4] = cancer therapy, 50 mg/day oral MTX

SMILES: CN(Cc1cnc2nc(N)nc(N)c2n1)c1ccc(C(=O)N[C@@H](CCC(=O)O)C(=O)O)cc1 [MTX, methotrexate]
- number of genera with significant shifts in abundance ([1]; MTX 100 μg/ml): 17
- Actinobacteria abundance [1, 3]: increased
- Bacteroidetes abundance [1, 3]: decreased
- lag phase ([1]; MTX 100 μg/ml, 48 hours): significant delay
- carrying capacity ([1]; MTX 100 μg/ml, 48 hours, p=1.9×10-6, paired Student's t-test): significant decrease
- richness (16S-seq of endpoint samples) ([1]; MTX 100 μg/ml, 4 patient samples): significant decrease
- number of ASVs with significant shifts in abundance ([1]; MTX 100 μg/ml, padj<0.01, DESeq): 20
- growth of complex microbial communities ([1]; stool of 30 MTX-naive patients, MTX 100 μg/ml vs vehicle, 48 hours): significantly impaired
- predicted concentration in the GI tract ([2]; 800-1000 mg IV over 24 hours, assuming 30% enterohepatically circulated): 960 to 1200 µg/mL
- estimated concentration of MTX in the proximal gastrointestinal (GI) tract ([2]; Example 2): 22-220 μM and 10-100 μg/ml
- estimated range of MTX in the GI tract ([2]; RA dose, 10-70% of the dose not absorbed): 10 to 70 µg/mL
- predicted concentration of MTX in the proximal GI tract [2]: 220 µM
- predicted concentration of MTX in the proximal GI tract ([2]; highest, prior to absorption): 100 µg/mL
- highest predicted concentration of MTX in the GI tract [2, 4]: 200 µg/mL
- predicted range of MTX in the GI tract [2, 4]: 20 to 140 µg/mL
